# In US10334851B2, “Herbicidal isoxazolo[5,4-B]pyridines” (BASF SE, priority 2010, dated 2019):
# Assays:
# Type in all cases: in vivo
# Matricaria inodora = assay: Greenhouse post-emergence treatment of Matricaria inodora (horse daisy); conditions: application rate 2.0 kg/ha, scale 0 (no damage) to 100 (complete destruction)
# Description: (§1) The seeds of the test plants were sown separately for each species. For the post-emergence treatment, the test plants were first grown to a height of 3 to 15 cm, depending on the plant habit, and only then treated with the active ingredients which had been suspended or emulsified in water. For this purpose, the test plants were either sown directly and grown in the same containers, or they were first grown separately as seedlings and transplanted into the test containers a few days prior to treatment. Depending on the species, the plants were kept at 10-25° C. or 20-35° C. The test period extended over 2 to 4 weeks. During this time, the plants were tended, and their response to the individual treatments was evaluated. Evaluation was carried out using a scale from 0 to 100. 100 means no emergence of the plants, or complete destruction of at least the aerial moieties, and 0 means no damage, or normal course of growth. A good herbicidal activity is given at values of at least 80 and a very good herbicidal activity is given at values of at least 90. The plants used in the greenhouse experiments belonged to the following species: [table]
# Abutilon theophrasti = assay: Greenhouse post-emergence treatment of Abutilon theophrasti (velvetleaf); conditions: scale 0 (no damage) to 100 (complete destruction); for pest or weed control at 2000 g/ha / pest or weed control at 3000 g/ha: Abutilon theophrasti
# Description: as §1
# Setaria faberi = assay: Greenhouse post-emergence treatment of Setaria faberi (giant foxtail); conditions: for damage: scale 0 to 100; for pest or weed control at 2000 g/ha / pest or weed control at 3000 g/ha: scale 0 to 100, read-out: damage
# Description: as §1
# Agrostis stolonifera L. = assay: Greenhouse post-emergence treatment of Agrostis stolonifera L. (white bent); conditions: application rate 2.0 kg/ha, scale 0 (no damage) to 100 (complete destruction)
# Description: as §1
# Chenopodium album = assay: Greenhouse post-emergence treatment of Chenopodium album (fat-hen); conditions: application rate 1.0 kg/ha; for damage: scale 0 to 100; for pest or weed control at 1000 g/ha: scale 0 to 100, read-out: damage
# Description: as §1
# Lolium multiflorum = assay: Greenhouse post-emergence treatment of Lolium multiflorum (italian ryegrass); conditions: application rate 1.0 kg/ha, scale 0 (no damage) to 100 (complete destruction)
# Description: as §1
# Avena fatua = assay: Greenhouse post-emergence treatment of Avena fatua (spring-wild oat); conditions: scale 0 (no damage) to 100 (complete destruction)
# Description: as §1
# Alopecurus myosuroides = assay: Greenhouse post-emergence treatment of Alopecurus myosuroides (blackgrass); conditions: application rate 1.0 kg/ha, scale 0 (no damage) to 100 (complete destruction)
# Description: as §1
# Polygonum convolvulus = assay: Greenhouse post-emergence treatment of Polygonum convolvulus (wild buckwheat); conditions: application rate 1.0 kg/ha, scale 0 to 100
# Description: as §1
# [1] = system: Amaranthus retroflexus L.; assay: Greenhouse post-emergence treatment of Amaranthus retroflexus L. (pigweed); conditions: application rate 1.0 kg/ha, scale 0 to 100
# Description: as §1
structure (smiles),measurement,setting,value
CCOC(=O)C1=C(COC(=O)c2cc(C3CC3)nc3onc(C)c23)NC(=O)NC1 [I.1.2],damage,Matricaria inodora,90%
Cc1noc2nc(C3CC3)cc(C(=O)OCC#N)c12 [I.1.6],damage,Abutilon theophrasti; application rate 3.0 kg/ha,100%
same,damage,Setaria faberi; application rate 3.0 kg/ha,95%
Cc1noc2nc(C3CC3)cc(C(=O)OCc3nc(-c4cccs4)no3)c12 [I.1.10],damage,Agrostis stolonifera L.,90%
same,damage,Matricaria inodora,85%
Cc1noc2nc(C3CC3)cc(C(=O)OCc3nc4ccccc4o3)c12 [I.1.21],damage,Chenopodium album,100%
same,damage,Lolium multiflorum,100%
Cc1noc2nc(C3CC3)cc(C(=O)OC(C)C(N)=O)c12 (stereo not drawn) [I.1.24],damage,Matricaria inodora,100%
COc1ccc(-c2nc(COC(=O)c3cc(C4CC4)nc4onc(C)c34)co2)cc1 [I.1.31],damage,Agrostis stolonifera L.,85%
same,damage,Matricaria inodora,95%
CCCN(CC1CC1)C(=O)COC(=O)c1cc(C2CC2)nc2onc(C)c12 [I.1.35],damage,Avena fatua; application rate 3.0 kg/ha,85%
same,damage,Abutilon theophrasti; application rate 3.0 kg/ha,90%
COC(=O)c1cc(C2CC2)nc2onc(C)c12 [I.1.39],damage,Avena fatua; application rate 2.0 kg/ha,85%
same,damage,Agrostis stolonifera L.,90%
Cc1noc2nc(C3CC3)cc(C(=O)OCC(=O)OC(C)(C)C)c12 [I.1.43],damage,Avena fatua; application rate 1.0 kg/ha,90%
same,damage,Alopecurus myosuroides,80%
CCc1ccc(C(=O)COC(=O)c2cc(C3CC3)nc3onc(C)c23)s1 [I.1.49],damage,Agrostis stolonifera L.,85%
same,damage,Matricaria inodora,98%
CCOC(=O)c1cc(C2CC2)nc2onc(C)c12 [I.1.63],damage,Avena fatua; application rate 3.0 kg/ha,80%
Cc1noc2nc(C3CC3)cc(C(=O)OCC(F)(F)F)c12 [I.1.67],damage,Avena fatua; application rate 3.0 kg/ha,95%
same,damage,Abutilon theophrasti; application rate 3.0 kg/ha,100%
Cc1noc2nc(C3CC3)cc(C(=O)O)c12 [I.2.1],pest or weed control at 2000 g/ha,Abutilon theophrasti; application rate 2.0 kg/ha,95%
same,pest or weed control at 2000 g/ha,Setaria faberi; application rate 2.0 kg/ha,100%
CC(C)(C)Cc1noc2nc(C3CC3)cc(C(=O)O)c12 [I.2.2],damage,Abutilon theophrasti; application rate 2.0 kg/ha,100%
same,damage,Setaria faberi; application rate 2.0 kg/ha,90%
CCCc1noc2nc(C3CC3)cc(C(=O)O)c12 [I.2.3],damage,Abutilon theophrasti; application rate 3.0 kg/ha,100%
same,damage,Setaria faberi; application rate 3.0 kg/ha,85%
O=C(O)c1cc(C2CC2)nc2onc(-c3ccco3)c12 [I.2.4],damage,Matricaria inodora,98%
O=C(O)c1cc(C2CC2)nc2onc(-c3ccccc3)c12 [I.2.5],damage,Abutilon theophrasti; application rate 3.0 kg/ha,100%
same,damage,Setaria faberi; application rate 3.0 kg/ha,80%
CC(C)c1noc2nc(C3CC3)cc(C(=O)O)c12 [I.2.6],pest or weed control at 3000 g/ha,Abutilon theophrasti; application rate 3.0 kg/ha,100%
same,pest or weed control at 3000 g/ha,Setaria faberi; application rate 3.0 kg/ha,95%
O=C(O)c1cc(C2CC2)nc2onc(C3CC3)c12 [I.2.7],pest or weed control at 3000 g/ha,Abutilon theophrasti; application rate 3.0 kg/ha,100%
same,pest or weed control at 3000 g/ha,Setaria faberi; application rate 3.0 kg/ha,100%
COc1ccc(-c2noc3nc(C4CC4)cc(C(=O)O)c23)cc1 [I.2.8],damage,Abutilon theophrasti; application rate 3.0 kg/ha,100%
same,damage,Setaria faberi; application rate 3.0 kg/ha,80%
O=C(O)c1cc(C2CC2)nc2onc(C(F)(F)F)c12 [I.2.10],pest or weed control at 3000 g/ha,Abutilon theophrasti; application rate 3.0 kg/ha,90%
same,pest or weed control at 3000 g/ha,Setaria faberi; application rate 3.0 kg/ha,85%
O=C(O)c1cc(C2CC2)nc2onc(CCc3ccccc3)c12 [I.2.11],damage,Abutilon theophrasti; application rate 3.0 kg/ha,100%
same,damage,Setaria faberi; application rate 3.0 kg/ha,100%
O=C(O)c1cc(C2CC2)nc2onc(C3CCC3)c12 [I.2.12],pest or weed control at 3000 g/ha,Abutilon theophrasti; application rate 3.0 kg/ha,100%
same,pest or weed control at 3000 g/ha,Setaria faberi; application rate 3.0 kg/ha,90%
CC1CC1c1noc2nc(C3CC3)cc(C(=O)O)c12 (stereo not drawn) [I.2.13],pest or weed control at 2000 g/ha,Abutilon theophrasti; application rate 2.0 kg/ha,100%
same,pest or weed control at 2000 g/ha,Setaria faberi; application rate 2.0 kg/ha,95%
O=C(O)c1cc(C2CC2)nc2onc(C3CCCC3)c12 [I.2.14],pest or weed control at 3000 g/ha,Abutilon theophrasti; application rate 3.0 kg/ha,100%
same,pest or weed control at 3000 g/ha,Setaria faberi; application rate 3.0 kg/ha,90%
O=C(O)c1cc(C2CC2)nc2onc(-c3cccnc3)c12 [I.2.15],pest or weed control at 3000 g/ha,Abutilon theophrasti; application rate 3.0 kg/ha,85%
same,pest or weed control at 3000 g/ha,Setaria faberi; application rate 3.0 kg/ha,100%
O=C(O)c1cc(C2CC2)nc2onc(-c3ccncc3)c12 [I.2.16],pest or weed control at 3000 g/ha,Abutilon theophrasti; application rate 3.0 kg/ha,85%
same,pest or weed control at 3000 g/ha,Setaria faberi; application rate 3.0 kg/ha,100%
O=C(O)c1cc(C2CC2)nc2onc(-c3ccc(-c4ccccc4)cc3)c12 [I.2.19],damage,Abutilon theophrasti; application rate 3.0 kg/ha,100%
same,damage,Setaria faberi; application rate 3.0 kg/ha,85%
O=C(O)c1cc(C2CC2)nc2onc(-c3ccc(Br)cc3)c12 [I.2.20],damage,Abutilon theophrasti; application rate 3.0 kg/ha,100%
same,damage,Setaria faberi; application rate 3.0 kg/ha,95%
O=C(O)c1cc(C2CC2)nc2onc(-c3ccccc3Br)c12 [I.2.59],damage,Chenopodium album,95%
same,damage,Polygonum convolvulus,90%
O=C(O)c1cc(C2CC2)nc2onc(-c3ccccc3OC(F)F)c12 [I.2.64],damage,[1],100%
same,damage,Polygonum convolvulus,80%
O=C(O)c1cc(C2CC2)nc2onc(-c3ccc([N+](=O)[O-])cc3)c12 [I.2.65],damage,[1],100%
same,damage,Polygonum convolvulus,100%
Cc1ccsc1-c1noc2nc(C3CC3)cc(C(=O)O)c12 [I.2.69],pest or weed control at 1000 g/ha,Chenopodium album,95%
same,damage,Polygonum convolvulus,85%
Cc1noc2nc(-c3ccc(OC(F)F)cc3)cc(C(=O)O)c12 [I.5.13],damage,Setaria faberi; application rate 3.0 kg/ha,95%
CC(C)c1noc2nc(-c3ccc(F)cc3)cc(C(=O)O)c12 [I.7.4],damage,Setaria faberi; application rate 3.0 kg/ha,80%
COc1ccccc1-c1cc(C(=O)O)c2c(C(C)C)noc2n1 [I.7.7],damage,Setaria faberi; application rate 3.0 kg/ha,85%
CCc1cc(C(=O)O)c2c(C3CC3)noc2n1 [I.7.17],pest or weed control at 3000 g/ha,Abutilon theophrasti; application rate 3.0 kg/ha,100%
same,pest or weed control at 3000 g/ha,Setaria faberi; application rate 3.0 kg/ha,90%
Cc1noc2nc(C3(F)CC3)cc(C(=O)O)c12 [I.7.51],pest or weed control at 3000 g/ha,Setaria faberi; application rate 3.0 kg/ha,90%
O=C(O)c1cc(C2(F)CC2)nc2onc(-c3ccc(C(F)(F)F)cc3)c12 [I.7.59],damage,[1],100%
same,damage,Polygonum convolvulus,100%
O=C(O)c1cc(C2(F)CC2)nc2onc(-c3ccc(Br)cc3)c12 [I.7.60],damage,[1],100%
same,damage,Polygonum convolvulus,100%
CCCCc1noc2nc(C3(F)CC3)cc(C(=O)O)c12 [I.7.66],damage,Chenopodium album,100%
same,damage,Polygonum convolvulus,100%
CC(C)c1noc2nc(C3(F)CC3)cc(C(=O)O)c12 [I.7.67],pest or weed control at 1000 g/ha,Chenopodium album,100%
same,damage,Polygonum convolvulus,100%
CC(C)(C)Cc1noc2nc(C3(F)CC3)cc(C(=O)O)c12 [I.7.69],damage,[1],100%
same,damage,Polygonum convolvulus,100%
